Assay results taken from patent US20140263071A1, “METHOD FOR COLLECTING METALS” (CHEMEC OY AB, priority 2011, published 2014).
Marks after values point to notes of the source that are not given here.

Experiments:
[1] = Purification of ash water from toxic waste disposal plant, TS 3 (Example 18)
Protocol: An ash sample (200 g) obtained from toxic waste disposal plant was suspended to water (2.0 l) and stirred for 24 h and filtrated. Approximate metal concentrations (pH 3.62): 1-4 g/l of Ca^2+, K^+ and Na^+, 0.1-0.2 g/l of Al^3+, Mg^2+ and Zn^2+; ≦0.02 g/l of Cd^2+, Mn^2+, Pb^2+ and Sr^2+.
TS 3, TS 3 diluted to 1:10 (TS 3a), TS 3 diluted to 1:100 (TS 3b) and Cd^2+, Pb^2+ and Zn^2+ spiked samples TS 3a and TS 3b were each treated with 1a (1.0 g) with stirring for 24 h. These five samples were separately filtrated trough 0.2 μm syringe filter and metal concentrations in each solution were determined by ICP-AES method before and after treatment with 1a.

[2] = Simultaneous collection of Al, Ga and V from TS 5 at pH 0.5 (Example 23); settings: spiked TS 5, pH 0.5, 1a 10 g
Protocol: A test solution containing 1-15 mg/l of Al^3+, Fe^2/3+, Mg^2+, Mn^2+, Ni^2+ and Zn^2+; 0.1-0.9 mg/l of Ca^2+ and Na^+; and trace amount of other Cr^3+, Co^2+, Cu^2+, Eu^3+, La^3+, Nd^3+, Y^3+, UO2^2+ and Nb^5+ cations were prepared.
TS 5 (100 ml) was spiked with known amounts of Al^3+, Ga^3+ and V^4+ Merch Titrisol® standard solutions. After pH of the mixture was adjusted to 0.5 by HNO3 sample A was taken followed by adding 1a (10 g). The mixture was stirred at room temperature for 24 h and sample B was taken. Samples A and B were filtrated separately trough 0.2 μm syringe filter and the concentrations of the studied elements in both solution were determined by using ICP-AES method. The expulsion percent for each element were determined from the concentration differences between the sample A and B. The experimental results are given in Table 17.

[3] = Optimal expulsion pH range with minimum expulsion percent, single elements (Example 7)
Protocol: (§1) A water solution (110 ml) containing known amount of single cationic element or elements, typically 0.5-200 ppm, was prepared from Merch Titrisol® standard solution. After adjusting pH by using acid (e.g. HCl or HNO3) or base (e.g. NaOH) to desired initial value, sample A (10 ml) was taken followed by adding 100 mg of selected solid complexation agent. The mixture was stirred at room temperature for 24 h and sample B (10 ml) was taken. Samples A and B were filtrated separately trough 0.2 μm syringe filter and the concentration of the studied element or elements in both solution was determined by using atomic absorption spectrophotometer. The expulsion percent was determined from the concentration differences between the sample solutions A and B.
Using the above mentioned general procedure optimal expulsion pH ranges for each metal with complexation agent 1a was determined. For each element the expulsion percent was determined in 5-14 different pH value. The obtained results are shown in table below with minimum expulsion percent inside the optimal pH range.

[4] = Separation of Cr(III) from Cr(VI) (Example 14); settings: pH 4.0, 1a 100 mg
Protocol: as §1
An aqueous solution (100 ml) containing 1.72 ppm of Cr(III) and 1.89 ppm of Cr(VI) was prepared from Merch Titrisol® standard solution and pH was adjusted to 4.0. Following the general procedure described earlier the mixture was treated with 1a (100 mg) and expulsion per for Cr(III) and Cr(VI) were calculated to be 97.0% and 0%, respectively.

In the case of `NCCCCCCCCCCC(O)(P(=O)(O)O)P(=O)(O)O` [Compound 1a, 11-Amino-1-hydroxyundecane-1,1-diyldiphosphonic acid], the “Expulsion [%]” value ([1]; Spiked TS 3a, Al^3+) is reported as ≥ 79.3^5) %, the “Expulsion [%]” value ([1]; Spiked TS 3a, Ca^2+) is reported as 88.9% and the “Expulsion [%]” value ([1]; Spiked TS 3a, Cd^2+) is reported as 75.6%. The “Expulsion [%]” value ([1]; Spiked TS 3a, K^+) was 1.8%, the “Expulsion [%]” value ([1]; Spiked TS 3a, Na^+) was 3.5% and the “Expulsion [%]” value ([1]; Spiked TS 3a, Pb^2+) was ≥ 97.8^5) %. For the same compound, the “Expulsion [%]” value ([1]; Spiked TS 3a, Sr^2+) was 14.6%, the “Expulsion [%]” value ([1]; Spiked TS 3a, Zn^2+) was 93.6% and the “Expulsion [%]” value ([1]; Spiked TS 3b, Ca^2+) was 95.2%. The “Expulsion [%]” value ([1]; Spiked TS 3b, Cd^2+) was 96.2%, the “Expulsion [%]” value ([1]; Spiked TS 3b, K^+) was 0.8% and the “Expulsion [%]” value ([1]; Spiked TS 3b, Na^+) was 7.1%. The “Expulsion [%]” value ([1]; Spiked TS 3b, Pb^2+) was ≥ 98.1^5) %, the “Expulsion [%]” value ([1]; Spiked TS 3b, Sr^2+) was 60.2% and the “Expulsion [%]” value ([1]; Spiked TS 3b, Zn^2+) was 91.3%. The “Expulsion [%]” value ([1]; TS 3, Al^3+) was 3.4^ %, the “Expulsion [%]” value ([1]; TS 3, Ca^2+) was 1.9% and the “Expulsion [%]” value ([1]; TS 3, Cd^2+) was 2.1%. The “Expulsion [%]” value ([1]; TS 3, K^+) was 2.9%, the “Expulsion [%]” value ([1]; TS 3, Mg^2+) was 1.5% and the “Expulsion [%]” value ([1]; TS 3, Mn^2+) was 1.9%. For the same compound, the “Expulsion [%]” value ([1]; TS 3, Na^+) was 10.8%, the “Expulsion [%]” value ([1]; TS 3, Pb^2+) was 65.7% and the “Expulsion [%]” value ([1]; TS 3, Sr^2+) was 2.1%. The “Expulsion [%]” value ([1]; TS 3, Zn^2+) was 3.6%, the “Expulsion [%]” value ([1]; TS 3a (TS 3 diluted 1:10), Al^3+) was ≥ 71.8^5) % and the “Expulsion [%]” value ([1]; TS 3a (TS 3 diluted 1:10), Ca^2+) was 88.1%. The “Expulsion [%]” value ([1]; TS 3a (TS 3 diluted 1:10), K^+) was 0%, the “Expulsion [%]” value ([1]; TS 3a (TS 3 diluted 1:10), Na^+) was 2.0% and the “Expulsion [%]” value ([1]; TS 3a (TS 3 diluted 1:10), Pb^2+) was ≥ 35.5^5) %. The “Expulsion [%]” value ([1]; TS 3a (TS 3 diluted 1:10), Sr^2+) was 12.5%, the “Expulsion [%]” value ([1]; TS 3a (TS 3 diluted 1:10), Zn^2+) was 0.0% and the “Expulsion [%]” value ([1]; TS 3b (TS 3 diluted 1:100), Ca^2+) was 93.1%. For the same compound, the “Expulsion [%]” value ([1]; TS 3b (TS 3 diluted 1:100), K^+) was 1.6%, the “Expulsion [%]” value ([1]; TS 3b (TS 3 diluted 1:100), Na^+) was 9.9% and the “Expulsion [%]” value ([1]; TS 3b (TS 3 diluted 1:100), Sr^2+) was 53.4%. For the same compound, the “Expulsion [%]” value ([1]; TS 3b (TS 3 diluted 1:100), Zn^2+) was ≥ 48.5^5) %, the “Expulsion [%]” value ([2]; Al^3+) was 99.8^1) % and the “Expulsion [%]” value ([2]; Cr^3+) was 0%. For the same compound, the “Expulsion [%]” value ([2]; Fe^2/3+) was ≥ 97.0^4) %, the “Expulsion [%]” value ([2]; Ga^3+) was 93.2^2) % and the “Expulsion [%]” value ([2]; Mg^2+) was 0%. The “Expulsion [%]” value ([2]; Mn^2+) was 9%, the “Expulsion [%]” value ([2]; Ni^2+) was 0% and the “Expulsion [%]” value ([2]; V^4+) was 99.7^3) %. The “Expulsion [%]” value ([2]; Zn^2+) was 23%, the “Expulsion [%]” value ([3]; Ag^+, minimum within pH range 1.5-12) was greater than 84% and the “Expulsion [%]” value ([3]; Al^3+, minimum within pH range 1-2) was greater than 96%. The “Expulsion [%]” value ([3]; Au^3+, minimum within pH range 0-2) was greater than 39%, the “Expulsion [%]” value ([3]; Ba^2+, minimum within pH range 3-12) was greater than 75% and the “Expulsion [%]” value ([3]; Bi^3+, minimum within pH range 0.5-4) was 100%. The “Expulsion [%]” value ([3]; Ca^2+, minimum within pH range 4-12) was greater than 50%, the “Expulsion [%]” value ([3]; Cd^2+, minimum within pH range 3-11) was greater than 36% and the “Expulsion [%]” value ([3]; Co^2+, minimum within pH range 4-11) was greater than 77%. The “Expulsion [%]” value ([3]; Cr^3+, minimum within pH range 2.5-12) was greater than 60%, the “Expulsion [%]” value ([3]; Cr^6+, As^3/5+, Ta^5+, within pH range 0-12) was less than 8% and the “Expulsion [%]” value ([3]; Cu^2+, minimum within pH range 3-11) was greater than 87%. For the same compound, the “Expulsion [%]” value ([3]; Cu^+, minimum within pH range 3-11) was greater than 79%, the “Expulsion [%]” value ([3]; Eu^3+, minimum within pH range 2-8) was 70% and the “Expulsion [%]” value ([3]; Fe^2+, minimum within pH range 3-10) was greater than 79%. The “Expulsion [%]” value ([3]; Fe^3+, minimum within pH range 1-11) was greater than 55%, the “Expulsion [%]” value ([3]; Ga^3+, minimum within pH range 0.5-1) was 100% and the “Expulsion [%]” value ([3]; Ga^3+, minimum within pH range 6-11) was greater than 90%. The “Expulsion [%]” value ([3]; Hg^2+, minimum within pH range 2-11) was greater than 90%, the “Expulsion [%]” value ([3]; Hg^+, minimum within pH range 2-11) was greater than 80% and the “Expulsion [%]” value ([3]; Ir^3+, minimum within pH range 0.0-0.5) was greater than 65%. The “Expulsion [%]” value ([3]; La^3+, minimum within pH range 0-3.8) was greater than 40%, the “Expulsion [%]” value ([3]; Li^+, Na^+, K^+, within pH range 0-12) was less than 5% and the “Expulsion [%]” value ([3]; Mg^2+, minimum within pH range 4-12) was greater than 74%. For the same compound, the “Expulsion [%]” value ([3]; Mn^2+, minimum within pH range 4-10) was greater than 69%, the “Expulsion [%]” value ([3]; Mo^6+, minimum within pH range 4-10) was greater than 55% and the “Expulsion [%]” value ([3]; Nb^5+, minimum within pH range 0-12) was greater than 40%. For the same compound, the “Expulsion [%]” value ([3]; Nd^3+, minimum within pH range 2-8) was greater than 75%, the “Expulsion [%]” value ([3]; Ni^2+, minimum within pH range 4-11) was greater than 40% and the “Expulsion [%]” value ([3]; Os^4+, minimum within pH range 5-7) was greater than 40%. For the same compound, the “Expulsion [%]” value ([3]; Pb^2+, minimum within pH range 2-9) was greater than 79%, the “Expulsion [%]” value ([3]; Pd^2+, minimum within pH range 7-12) was greater than 65% and the “Expulsion [%]” value ([3]; Pt^2+, minimum within pH range 0-1) was greater than 60%. The “Expulsion [%]” value ([3]; Rh^3+, minimum within pH range 2-10) was greater than 19%, the “Expulsion [%]” value ([3]; Ru^3+, minimum within pH range 2-11) was greater than 55% and the “Expulsion [%]” value ([3]; Sb^3+, minimum within pH range 0.5-11) was greater than 75%. The “Expulsion [%]” value ([3]; Sc^3+, minimum within pH range 0-12) was greater than 80%, the “Expulsion [%]” value ([3]; Si^4+, Se^4/6+, within pH range 0-12) was less than 2% and the “Expulsion [%]” value ([3]; Sn^2+, minimum within pH range 8-10) was 100%. The “Expulsion [%]” value ([3]; Sn^4+, minimum within pH range 7-11) was greater than 91%, the “Expulsion [%]” value ([3]; Sr^2+, minimum within pH range 4-12) was greater than 80% and the “Expulsion [%]” value ([3]; Ti^4+, minimum within pH range 10-12) was greater than 35%. The “Expulsion [%]” value ([3]; V^4+, minimum within pH range 0-0.5) was greater than 30%, the “Expulsion [%]” value ([3]; W^6+, minimum within pH range 0.5-3) was greater than 12% and the “Expulsion [%]” value ([3]; Y^3+, minimum within pH range 1.5-4 >10) was greater than 60%. For the same compound, the “Expulsion [%]” value ([3]; Zn^2+, minimum within pH range 4-11) was greater than 75%, the “Expulsion [%]” value ([3]; Zr^4+, minimum within pH range 0-4.8-10) was 60% and the “expulsion per cent for Cr(III)” value ([4]; 1.72 ppm Cr(III) with 1.89 ppm Cr(VI)) was 97.0%. For the same compound, the “expulsion per cent for Cr(VI)” value ([4]; 1.89 ppm Cr(VI) with 1.72 ppm Cr(III)) was 0%.
